Values quoted from earlier work as cited in patent US20110200683A1, “Hydrogen peroxide solution producing first aid substance, packaging, and treatment” (Piper Medical, Inc, priority 2010, published 2011).

Legend:
[1] = in water
[2] = temperatures above 50° C

Q: What does the source list for `NC(N)=O.OO` [percarbamide]?
A: solubility sufficient to create a hydrogen peroxide concentration [1]: ≥ 3%; stability [2]: relatively stable
